Consider 31 compounds from patent US20110313156A1 (BOEHRINGER INGELHEIM INTERNATIONAL GMBH, priority 2008, published 2011).

The target of the assay is T1, His6-PDK1 (aa 52-556) (Homo sapiens, UniProt O15530).
T1 construct: 15 μL His6-PDK1 (aa 52-556) 3.33 ng/well); host or cells: baculovirus-infected insect cells
T1 sequence (O15530 52-556): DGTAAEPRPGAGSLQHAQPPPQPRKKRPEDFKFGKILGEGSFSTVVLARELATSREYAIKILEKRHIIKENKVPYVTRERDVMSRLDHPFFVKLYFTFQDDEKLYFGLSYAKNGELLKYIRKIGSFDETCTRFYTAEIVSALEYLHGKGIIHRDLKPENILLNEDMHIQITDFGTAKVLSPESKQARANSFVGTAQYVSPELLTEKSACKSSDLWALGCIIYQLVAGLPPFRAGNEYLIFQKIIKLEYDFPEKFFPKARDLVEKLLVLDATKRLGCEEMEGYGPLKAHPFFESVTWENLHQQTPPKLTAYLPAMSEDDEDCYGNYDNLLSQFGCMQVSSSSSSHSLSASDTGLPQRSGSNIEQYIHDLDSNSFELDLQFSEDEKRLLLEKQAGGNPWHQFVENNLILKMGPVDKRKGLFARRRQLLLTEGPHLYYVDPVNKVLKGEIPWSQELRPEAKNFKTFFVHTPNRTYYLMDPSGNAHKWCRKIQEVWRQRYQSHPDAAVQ
The experiment in a line: PDK1 kinase assay III (with Tween 20). As to conditions: compound at 10 μM; PDK1 kinase assay III (values without asterisk); read-out: % CTL (residual activity of the enzyme relative to DMSO control). The assay is classed as biochemical. The essentials:
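Started with ATP, incubated 90 min at ambient temperature, then stopped with phosphoric acid. Asterisked values come from assay II (24 h or 5 min incubation).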
With `CN1CCC(N(C)c2ccc(Nc3ncc4cc(C#CCNC(=O)c5ccnn(Cc6ccc(F)c(F)c6)c5=O)ccc4n3)cc2)CC1` [III-36, 2-(3,4-difluorobenzyl)-N-{3-[2-({4-[methyl(1-methylpiperidin-4-yl)amino]phenyl}amino)quinazolin-6-yl]prop-2-yn-1-yl}-3-oxo-2,3-dihydropyridazine-4-carboxamide], the remaining activity at 10 µM was 13.2%.

For the compound `Cc1c(C(=O)NCC#Cc2ccc3cn[nH]c3c2)c(=O)n(Cc2ccc(F)c(F)c2)n1C` [II-3, 2-(3,4-difluorobenzyl)-N-[3-(1H-indazol-6-yl)prop-2-yn-1-yl]-1,5-dimethyl-3-oxo-2,3-dihydro-1H-pyrazole-4-carboxamide], the remaining activity at 10 µM turned out to be 12.4%.

For `CN1CCC(NC(=O)c2ccc(Nc3ncc4cc(/C=C/CNC(=O)c5cncn(Cc6ccc(F)c(F)c6)c5=O)ccc4n3)cc2Cl)CC1`, the remaining activity at 10 µM is 22.4%.

Turning to `Cc1c(C(=O)NC/C=C/c2ccc3c(c2)NC(=O)/C3=C\c2cnc[nH]2)c(=O)n(Cc2ccc(F)c(F)c2)n1C` [I-17, 2-(3,4-difluorobenzyl)-N-{(2E)-3-[(3Z)-3-(1H-imidazol-5-ylmethylidene)-2-oxo-2,3-dihydro-1H-indol-6-yl]prop-2-en-1-yl}-1,5-dimethyl-3-oxo-2,3-dihydro-1H-pyrazole-4-carboxamide], the remaining activity at 10 µM came out at 14.3%.

As for `Cc1c(C(=O)NC/C=C\c2ccc3cn[nH]c3c2)c(=O)n(Cc2ccc(F)c(F)c2)n1C` [II-7, 2-(3,4-difluorobenzyl)-N-[(2Z)-3-(1H-indazol-6-yl)prop-2-en-1-yl]-1,5-dimethyl-3-oxo-2,3-dihydro-1H-pyrazole-4-carboxamide], the remaining activity at 10 µM is 27.4%.

With `Cc1c(C(=O)NC/C=C/c2ccc3nc(Nc4ccc(C(=O)O)cc4)ncc3c2)c(=O)n(Cc2ccc(F)c(F)c2)n1C`, the remaining activity at 10 µM came out at 12.9%.

For `Cc1nc[nH]c1/C=C1\C(=O)Nc2cc(/C=C/CNC(=O)c3cncn(Cc4ccc(F)c(F)c4)c3=O)ccc21` [I-4, 1-(3,4-difluorobenzyl)-N-[(2E)-3-{(3Z)-3-[(5-methyl-1H-imidazol-4-yl)methylidene]-2-oxo-2,3-dihydro-1H-indol-6-yl]prop-2-en-1-yl}-6-oxo-1,6-dihydropyrimidine-5-carboxamide], the remaining activity at 10 µM came to 16.4%.

For `Cc1c(C(=O)NCC#Cc2ccc3c(-c4ccc(CN(C)C)cc4)n[nH]c3c2)c(=O)n(Cc2ccc(F)c(F)c2)n1C` [II-8, 2-(3,4-difluorobenzyl)-N-[3-(3-{4-[(dimethylamino)methyl]phenyl}-1H-indazol-6-yl)prop-2-yn-1-yl]-1,5-dimethyl-3-oxo-2,3-dihydro-1H-pyrazole-4-carboxamide], the remaining activity at 10 µM came to 16.5%.

As to `Cc1c(C(=O)NC/C=C/c2ccc3nc(Nc4ccccn4)ncc3c2)c(=O)n(Cc2ccc(F)c(F)c2)n1C`, the remaining activity at 10 µM was 22.7%.

With `Cc1c(C(=O)NCC#Cc2cc(OCCCN)c3nc(Nc4ccc(N5CCOCC5)cc4)ncc3c2)c(=O)n(Cc2ccc(F)c(F)c2)n1C` [III-74], the remaining activity at 10 µM stood at 13%.

For `Cc1c(C(=O)NCC#Cc2ccc3nc(Nc4ccc(C(=O)NC5CCC(C)CC5)cc4)ncc3c2)c(=O)n(Cc2ccc(F)c(F)c2)n1C` (stereo not shown), the remaining activity at 10 µM came out at 20.8%.

As for `O=C(NCc1ccc(Nc2ncnc3[nH]c(-c4ccccc4)cc23)cc1)c1cncn(Cc2ccc(F)c(F)c2)c1=O` [IV-24, 1-(3,4-difluorobenzyl)-6-oxo-N-{4-[(6-phenyl-7H-pyrrolo[2,3-d]pyrimidin-4-yl)amino]benzyl}-1,6-dihydropyrimidine-5-carboxamide], the remaining activity at 10 µM came out at 15.7%.

With `NCCOc1cc(C#CCNC(=O)c2cncn(Cc3ccc(F)c(F)c3)c2=O)cc2cnc(Nc3ccc(N4CCOCC4)cc3)nc12`, the remaining activity at 10 µM stood at 18.3%.

In the case of `Cc1c(C(=O)NCC#Cc2ccc3nc(Nc4ccc(CN(C)C)cc4)ncc3c2)c(=O)n(Cc2ccccc2)n1C` [III-18, 2-benzyl-N-{3-[2-({4-[(dimethylamino)methyl]phenyl}amino)quinazolin-6-yl]prop-2-yn-1-yl}-1,5-dimethyl-3-oxo-2,3-dihydro-1H-pyrazole-4-carboxamide], the remaining activity at 10 µM is 14.7%.

For the compound `CN1CCC(N(C)c2ccc(Nc3ncc4cc(/C=C/CNC(=O)c5cn(C)c(=O)n(Cc6ccc(F)c(F)c6)c5=O)ccc4n3)cc2)CC1` [IV-44, 3-(3,4-difluorobenzyl)-1-methyl-N-{(2E)-3-[2-({4-[methyl(1-methylpiperidin-4-yl)amino]phenyl}amino)quinazolin-6-yl]prop-2-en-1-yl}-2,4-dioxo-1,2,3,4-tetrahydro-pyrimidine-5-carboxamide], the remaining activity at 10 µM was found to be 16.3%.

On to `CN(C)Cc1ccc(-c2n[nH]c3cc(C#CCNC(=O)c4cncn(Cc5ccc(F)c(F)c5)c4=O)ccc23)cc1` [II-9, 1-(3,4-difluorobenzyl)-N-[3-(3-{4-[(dimethylamino)methyl]phenyl}-1H-indazol-6-yl)prop-2-yn-1-yl]-6-oxo-1,6-dihydropyrimidine-5-carboxamide], for which the remaining activity at 10 µM worked out at 10.7%.

On to `Cc1nc[nH]c1/C=C1\C(=O)Nc2cc(/C=C/CNC(=O)c3c(C)n(C)n(Cc4ccccc4)c3=O)ccc21` [I-39, 2-benzyl-1,5-dimethyl-N-[(2E)-3-{(3Z)-3-[(4-methyl-1H-imidazol-5-yl)methylidene]-2-oxo-2,3-dihydro-1H-indol-6-yl}prop-2-en-1-yl]-3-oxo-2,3-dihydro-1H-pyrazole-4-carboxamide], for which the remaining activity at 10 µM worked out at 18.6%.

As to `O=C1Nc2cc(/C=C/CNC(=O)c3cc(Cl)nn(Cc4ccc(F)c(F)c4)c3=O)ccc2/C1=C/c1cnc[nH]1` [I-33, 6-chloro-2-(3,4-difluorobenzyl)-N-{(2E)-3-[(3Z)-3-(1H-imidazol-5-ylmethylidene)-2-oxo-2,3-dihydro-1H-indol-6-yl]prop-2-en-1-yl}-3-oxo-2,3-dihydropyridazine-4-carboxamide], the remaining activity at 10 µM amounted to 12%.

As for `Cn1c(=O)c(C#CCNC(=O)c2cncn(Cc3ccc(F)c(F)c3)c2=O)cc2cnc(Nc3ccccc3)nc21` [III-22, 1-(3,4-difluorobenzyl)-N-{3-[8-methyl-7-oxo-2-(phenylamino)-7,8-dihydropyrido-[2,3-d]pyrimidin-6-yl]prop-2-yn-1-yl}-6-oxo-1,6-dihydropyrimidine-5-carboxamide], the remaining activity at 10 µM amounted to 24.9%.

With `O=C(NC/C=C/c1ccc2nc(Nc3ccccn3)ncc2c1)c1cncn(Cc2ccc(F)c(F)c2)c1=O`, the remaining activity at 10 µM worked out at 18.4%.

Turning to `CN(C)Cc1ccc(Nc2ncc3cc(N4CC[C@@H](NC(=O)c5cncn(Cc6ccc(F)c(F)c6)c5=O)C4)ccc3n2)cc1` [IV-29, 1-(3,4-difluorobenzyl)-N-{(3R)-1-[2-({4-[(dimethylamino)methyl]phenyl}amino)-quinazolin-6-yl]pyrrolidin-3-yl}-6-oxo-1,6-dihydropyrimidine-5-carboxamide], the remaining activity at 10 µM stood at 14.7%.

With `O=C1Nc2cc(/C=C/CNC(=O)c3cncn(Cc4ccc(F)c(F)c4)c3=O)cc(F)c2/C1=C/c1cnc[nH]1` [I-46, 1-(3,4-difluorobenzyl)-N-{(2E)-3-[(3Z)-4-fluoro-3-(1H-imidazol-5-ylmethylidene)-2-oxo-2,3-dihydro-1H-indol-6-yl]prop-2-en-1-yl}-6-oxo-1,6-dihydropyrimidine-5-carboxamide], the remaining activity at 10 µM is 15.6%.

In the case of `COCCN(C)C(=O)c1ccc(Nc2ncc3cc(C#CCNC(=O)c4cncn(Cc5ccc(F)c(F)c5)c4=O)ccc3n2)cc1`, the remaining activity at 10 µM was 12.2%.

Regarding `O=C(NCC#Cc1ccc2cn[nH]c2c1)c1cncn(Cc2ccc(F)c(F)c2)c1=O` [II-2, 1-(3,4-difluorobenzyl)-N-[3-(1H-indazol-6-yl)prop-2-yn-1-yl]-6-oxo-1,6-dihydropyrimidine-5-carboxamide], the remaining activity at 10 µM was 12.5%.

On to `COc1cc(Nc2ncc3cc(/C=C/CNC(=O)c4cncn(Cc5ccc(F)c(F)c5)c4=O)ccc3n2)ccc1C(=O)NC1CCN(C)CC1`, for which the remaining activity at 10 µM is 29%.

Consider `NCCOc1cc(C#CCNC(=O)c2cncn(Cc3ccc(F)c(F)c3)c2=O)cc2cnc(Nc3ccccc3)nc12`, for which the remaining activity at 10 µM is 13.7%.

On to `NCCOc1cc(/C=C/CNC(=O)c2cncn(Cc3ccc(F)c(F)c3)c2=O)cc2cnc(Nc3ccccc3)nc12` [III-63], for which the remaining activity at 10 µM was determined as 14.2%.

For `Cc1nc(/C=C2\C(=O)Nc3cc(/C=C/CNC(=O)c4cncn(Cc5ccc(F)c(F)c5)c4=O)ccc32)c[nH]1` [I-35, 1-(3,4-difluorobenzyl)-N-[(2E)-3-{(3Z)-3-[(2-methyl-1H-imidazol-4-yl)methylidene]-2-oxo-2,3-dihydro-1H-indol-6-yl}prop-2-en-1-yl]-6-oxo-1,6-dihydropyrimidine-5-carboxamide], the remaining activity at 10 µM is 10.7%.

For `CN(C)Cc1ccc(Nc2ncc3cc(CCCNC(=O)c4cncn(Cc5ccc(F)c(F)c5)c4=O)ccc3n2)cc1` [IV-23, 1-(3,4-difluorobenzyl)-N-{3-[2-({4-[(dimethylamino)methyl]phenyl}amino)quinazolin-6-yl]propyl}-6-oxo-1,6-dihydropyrimidine-5-carboxamide], the remaining activity at 10 µM is 16.8%.

Turning to `CNC(=O)c1cccc(Nc2ncc3cc(C#CCNC(=O)c4c(C)n(C)n(Cc5ccc(F)c(F)c5)c4=O)ccc3n2)c1`, the remaining activity at 10 µM was determined as 19.3%.

Take `Cc1c(C(=O)NCC#Cc2ccc3nc(NC4CCC4)ncc3c2)c(=O)n(Cc2ccc(F)c(F)c2)n1C`: the remaining activity at 10 µM was determined as 12.3%.
